Measurements from patent publication US8143287B2, “Thrombopoietin mimetics” (Stategics, Inc., priority 2006, dated 2012).

Columns and labels:
[1] = system: CD34+ CD38− human bone marrow cells; conditions: cited from earlier work
Solubility in water = type: physicochemical; conditions: parent compound without salt formation or use of specialized excipients
Description: A red solution of Compound 3f, 1 M HCl (0.75 mL, 0.75 mmol) and ethanol (1.5 mL) was cooled to 0 deg C. under nitrogen. A solution of 0.060 g of sodium nitrite in 1 mL of water was prepared separately and 0.25 mL (0.22 mmol of sodium nitrite) was added dropwise to the solution containing compound 3f with formation of a dark red-yellow color. The diazotization was monitored using TLC with 75% ethyl acetate-hexanes. Compound 1b (0.042 g, 0.21 mmol) was added after 30 min followed by sodium bicarbonate (0.086 g, 1.0 mmol) and additional ethanol (0.3 mL). The mixture was allowed to warm to 20 deg C., treated with additional sodium bicarbonate (0.073 g, 0.87 mmol) to adjust the pH to 7-8, and allowed to stir for 12 h. The mixture was diluted with ethyl acetate (100 mL) and 0.1 M HCl (5 mL). The aqueous layer was separated and extracted with 20 mL of ethyl acetate. The combined organics were washed with saturated sodium chloride (2×20 mL), and dried over sodium sulfate. The solvent was removed under reduced pressure and the residue purified by silica gel chromatography (40% ethyl acetate-hexanes) to afford Example 3 (0.0256 g, 29% yield over 2 steps). Electrospray MS [M]− 447.2.

| Compound | expansion of multipotent progenitors ([1]; following a 14-day incubation) | enhancement of clonogenic growth ([1]; in response to KL+FL+IL-3+IL-6+EPO) | solubility (Solubility in water) |
| --- | --- | --- | --- |
| Thrombopoietin [TPO] | 40 fold | ≤ 80% |  |
| CC1=NN(c2ccc(C)c(C)c2)C(=O)/C1=N\Nc1cccc(C2CCCC(C(=O)O)C2)c1O (stereo not drawn) [Example 3, 3-(3′-{2-[1-(3,4-dimethylphenyl)-3-methyl-5-oxo-4,5-dihydro-1H-pyrazol-4-ylidene]hydrazino}-2′-hydroxy-phenyl)cyclohexane-1-carboxylic Acid] |  |  | 140 µM |
